Experimental data reported in article PMC3510254 (PLoS Pathogens, 2012).
Where no end group is shown, it is not given here.

Assays:
[1] = system: constitutive proteasome (20S); test: purified constitutive proteasome, 4 µg in the degradation experiment, in digestion buffer; conditions: human, up to 6 hours
immunoproteasome (20S) [2] = test: purified immunoproteasome, 4 µg in the degradation experiment, in digestion buffer; conditions: human, up to 6 hours
immunoproteasome = target: T1, immunoproteasome (Homo sapiens, UniProt P28062+P28065+P40306); test: In vitro proteasomal peptide digest with mass spectrometry; type: in vitro ADME; conditions: 25-mer precursor, 1, 2, 4 and 6 hours; 2 µg or 4 µg proteasome; extracted ion chromatograms; Fig 6; triplicate
T1 construct: Constitutive and immuno-20S proteasomes were purified from LCL721.174 and LCL721 human EBV-transformed B cell lines; endogenous in cells; host or cells: LCL721 human EBV-transformed B cell line

immunoproteasome (20S) [3] = test: purified immunoproteasome in digestion buffer (20 mM HEPES-NaOH pH 7.6, 2 mM MgAc2, 0.5 mM DTT); conditions: human, up to 6 hours
[4] = system: constitutive proteasome (20S); test: purified constitutive proteasome in digestion buffer (20 mM HEPES-NaOH pH 7.6, 2 mM MgAc2, 0.5 mM DTT); conditions: human, up to 6 hours
proteasome = test: Proteasome inhibition of endogenous antigen processing in vHCV 827-infected B-LCLs, IFN-γ read-out of CTL lines; type: cell-based, human

VRVCEKMARMILMTHFPLAVMGSSY
fragment found [1]: ARMILMTHF
fragment found (immunoproteasome (20S) [2]): ARMILMTHF

VRVCEKMARMILMTHFPLAVMGSSY [B27-in-A2]
precursor degradation rate relative to A2-in-A2 peptide, immunoproteasomal digestion (immunoproteasome): degraded slightly more slowly than the A2-in-A2 peptide

AQTFLATCINGVCWTVYHGAGTRT
fragment found (immunoproteasome (20S) [3]): CINGVCWTV
fragment found [4]: CINGVCWTV

CC[C@H](C)[C@H](NC(=O)[C@H]([C@@H](C)CC)N(C)C(C)=O)C(=O)N[C@H](C(=O)N[C@@H](CC(C)C)C(=O)[C@@]1(C)CO1)[C@@H](C)O [epoxomicin]
effect on induction of epitope-specific IFN-γ production and number of responding CD8+ T cells (proteasome): delay the induction of epitope-specific IFN-γ production and considerably decrease the number of responding CD8+ T cells

CC(=O)N[C@@H](CSC(=O)[C@]1([C@@H](O)C(C)C)NC(=O)[C@H](C)[C@@H]1O)C(=O)O [lactacystin]
reductions in the number of responding CD8+ T cells (proteasome): 30–70%
